# Assay results from patent US8268996B2, “Compounds and compositions as cathepsin S inhibitors” (IRM LLC, priority 2004, dated 2012).
# Assays:
# Format in all cases: biochemical
# [1] = target: Cathepsin S (Homo sapiens, UniProt P25774); experiment: Cathepsin S Assay
# Experimental: (§1) Kinetic measurements are performed in a total reaction volume of 30 μl in 384-well microtiter plates. […] Control reactions in the absence of inhibitor are performed in replicates of 24. The reactions are initiated by adding the substrate, acetyl-histidine-proline-valine-lysine-amino carbamoyl coumarin, to a final concentration of 50 μM. The rate of substrate hydrolysis is measured by monitoring the increase in fluorescence at an excitation wavelength of 380 nm and an emission wavelength of 450 nm that results from cleavage of the aniline bond in the substrate by the enzyme. The apparent inhibition constants for the compounds are determined from the enzyme progress curves and are then used to calculate the inhibition constants for competitive inhibitors.
# [2] = target: T1, Cathepsin K (Homo sapiens, UniProt P43235); experiment: Cathepsin K Assay; settings: for Ki: pH5.5, 20 minutes incubation at room temperature, substrate 40 μM, fluorescence
# T1 sequence (P43235 115-329): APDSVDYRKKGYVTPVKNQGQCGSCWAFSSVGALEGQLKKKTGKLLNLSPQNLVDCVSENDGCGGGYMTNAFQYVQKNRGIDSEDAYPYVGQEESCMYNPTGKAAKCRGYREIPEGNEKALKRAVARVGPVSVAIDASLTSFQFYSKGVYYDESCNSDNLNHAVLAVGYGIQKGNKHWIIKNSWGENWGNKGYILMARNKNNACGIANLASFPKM
# Experimental: as §1, with “substrate, acetyl-lysine-histidine-proline-lysine-amino” for “substrate, acetyl-histidine-proline-valine-lysine-amino”, “of 40” for “of 50”
# [3] = target: Cathepsin B (Homo sapiens, UniProt P07858); experiment: Cathepsin B Assay; settings: for Ki: pH5.5, 20 minutes incubation at room temperature, substrate 10 μM, fluorescence
# Experimental: as §1, with “of 10” for “of 50”
# [4] = target: Cathepsin L (Homo sapiens, UniProt P07711); experiment: Cathepsin L Assay; settings: for Ki: pH5.5, 20 minutes incubation at room temperature, substrate 20 μM, fluorescence
# Cathepsin L, sequence (P07711 114-333, species assumed): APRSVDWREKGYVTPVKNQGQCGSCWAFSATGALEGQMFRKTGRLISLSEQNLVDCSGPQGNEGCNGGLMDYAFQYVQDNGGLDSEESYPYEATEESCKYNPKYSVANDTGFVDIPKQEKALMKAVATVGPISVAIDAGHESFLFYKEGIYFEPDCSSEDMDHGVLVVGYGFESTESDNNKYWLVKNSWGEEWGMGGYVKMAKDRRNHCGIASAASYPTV
# Experimental: as §1, with “substrate, acetyl-histidine-lysine-phenylalanine-lysine-amino” for “substrate, acetyl-histidine-proline-valine-lysine-amino”, “of 20” for “of 50”
# [5] = ratio of isozyme inhibition constant to cathepsin S inhibition constant
# Cathepsin S, sequence (P25774 115-331): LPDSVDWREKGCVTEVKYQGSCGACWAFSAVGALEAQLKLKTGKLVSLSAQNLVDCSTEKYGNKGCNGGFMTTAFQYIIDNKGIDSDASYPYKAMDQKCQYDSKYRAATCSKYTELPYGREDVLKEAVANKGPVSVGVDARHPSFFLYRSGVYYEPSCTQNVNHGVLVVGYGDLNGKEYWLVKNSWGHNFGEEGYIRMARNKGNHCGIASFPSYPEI
SMILES,IC50 [1],Ki [1],Ki [2],"selectivity for cathepsin S over cathepsin K [2, 5]",Ki [3],"selectivity for cathepsin S over cathepsin B [3, 5]",Ki [4],"selectivity for cathepsin S over cathepsin L [4, 5]"
"O=C(N[C@H](C(=O)c1nc2ccccc2o1)C1CC1)O[C@@H](CC1CCCCC1)C(=O)N1CCOCC1 [Example 1, 2-cyclohexyl-(1S)-(morpholine-4-carbonyl)ethyl 2-(benzooxazol-2-yl)-(1S)-cyclopropyl-2-oxo-ethyl carbamate]",6.6 nM,6.6 nM,5160 nM,at least 100 fold,> 47500 nM,at least 100 fold,> 23300 nM,at least 100 fold
"C[C@H](NC(=O)O[C@@H](CS(=O)(=O)Cc1ccccc1)C(=O)N1CCOCC1)C(=O)c1nc2ccccc2o1 [Example 2, 2-phenylmethanesulfonyl-(1R)-(morpholine-4-carbonyl)ethyl 2-(benzoxazol-2-yl)-(1S)-methyl-2-oxo-ethyl carbamate]",,488 nM,> 100000 nM,,> 100000 nM,,> 100000 nM,
"O=C(N[C@H]1COCC1=O)O[C@@H](CC1CCCCC1)C(=O)N1CCOCC1 [Example 5, 2-cyclohexyl-(1S)-(morpholine-4-carbonyl)ethyl 4-oxo-tetrahydro-furan-(3S)-yl carbamate]",,892 nM,> 30000 nM,,> 100000 nM,,> 100000 nM,
"N#C[C@H](COCc1ccccc1Cl)NC(=O)O[C@@H](CC1CCCCC1)C(=O)N1CCOCC1 [Example 8, (1S)-cyclohexylmethyl-2-morpholin-4-yl-2-oxo-ethyl 2-(2-chloro-benzyloxy)-(1R)-cyano-ethyl carbamate]",,31.4 nM,13800 nM,,> 30000 nM,,> 22600 nM,
"CCC[C@H](NC(=O)O[C@@H](CC1CCCCC1)C(=O)N1CCCC1)C(=O)c1nc2ccccc2o1 [Example 27, (1S)-cyclohexylmethyl-2-oxo-2-(pyrrolidin-1-yl)-ethyl(1S)-(benzoxazole-2-carbonyl)-butyl carbamate]",,0.8 nM,211 nM,,5700 nM,,2030 nM,
"CC[C@H](NC(=O)O[C@@H](CC1CCCCC1)C(=O)N1CCOCC1)C(=O)c1nc2cccnc2o1 [Example 39, 2-cyclohexyl-(1S)-(morpholine-4-carbonyl)ethyl(1S)-(oxazolo[5,4-b]pyridine-2-carbonyl)-propyl carbamate]",,0.4 nM,260 nM,,5220 nM,,1310 nM,
"O=C(N[C@H](C(=O)c1nc2ccc(F)cc2o1)C1CC1)O[C@@H](CC1CCCCC1)C(=O)N1CCOCC1 [Example 40, 2-cyclohexyl-(1S)-(morpholine-4-carbonyl)ethyl(1S)-cyclopropyl-2-(6-fluoro-benzoxazol-2-yl)-2-oxo-ethyl carbamate]",,2.1 nM,2130 nM,,> 30000 nM,,15300 nM,
"CC[C@H](NC(=O)O[C@H](C(=O)N1CCOCC1)C1CCCCC1)C(=O)c1nc2ccc(F)cc2o1 [Example 42, (1S)-cyclohexyl-1-(morpholine-4-carbonyl)methyl(1S)-(6-fluoro-benzoxazole-2-carbonyl)-propyl carbamate]",,4.6 nM,278 nM,,16700 nM,,9500 nM,
"CC[C@H](NC(=O)O[C@@H](CC1CCCCC1)C(=O)N(C)C)C(=O)c1nc2ccccc2o1 [Example 43, 2-cyclohexyl-(1S)-dimethylcarbamoyl-ethyl(1S)-(benzoxazole-2-carbonyl)-propyl carbamate]",,3.6 nM,250 nM,,16000 nM,,4650 nM,
"CCC[C@H](NC(=O)O[C@@H](CC1CCCCC1)C(=O)N1CCOCC1)C(=O)c1nc2ccc(F)cc2o1 [Example 44, 2-cyclohexyl-(1S)-(morpholine-4-carbonyl)ethyl(1S)-(6-fluoro-benzoxazole-2-carbonyl)-butyl carbamate]",,0.5 nM,483 nM,,9700 nM,,3610 nM,
"CCC[C@H](NC(=O)O[C@H](C(=O)N1CCOCC1)C1CCCCC1)C(=O)c1nc2ccccc2o1 [Example 46, (1S)-cyclohexyl-1-(morpholine-4-carbonyl)methyl(1S)-(benzoxazole-2-carbonyl)-butyl carbamate]",,1.6 nM,113 nM,,4040 nM,,2210 nM,
"CC[C@H](NC(=O)O[C@@H](CC1CCCCC1)C(=O)N1CCOCC1)C(=O)c1nc2ccc(C)cc2o1 [Example 47, 2-cyclohexyl-(1S)-(morpholine-4-carbonyl)ethyl(1S)-(6-methyl-benzoxazole-2-carbonyl)-propyl carbamate]",,1.1 nM,205 nM,,> 30000 nM,,2170 nM,
"CC[C@H](NC(=O)O[C@@H](CC1CCCCC1)C(=O)N1CCOCC1)C(=O)c1nc2cc(Cl)ccc2o1 [Example 48, 2-cyclohexyl-(1S)-(morpholine-4-carbonyl)ethyl(1S)-(5-chloro-benzoxazole-2-carbonyl)-propyl carbamate]",,2.8 nM,481 nM,,1880 nM,,2750 nM,
"CCC[C@H](NC(=O)O[C@@H](CC1CCCCC1)C(=O)N1CCOCC1)C(=O)c1nc2cc(F)ccc2o1 [Example 54, 2-cyclohexyl-(1S)-(morpholine-4-carbonyl)ethyl(1S)-(5-fluoro-benzoxazole-2-carbonyl)-butyl carbamate]",,1.8 nM,482 nM,,4360 nM,,2310 nM,
"CC[C@H](NC(=O)O[C@@H](CC1CCCCC1)C(=O)N1CCCC1)C(=O)c1nc2ccc(F)cc2o1 [Example 55, (1S)-cyclohexylmethyl-2-oxo-2-(pyrrolidin-1-yl)-ethyl(1S)-(6-fluoro-benzoxazole-2-carbonyl)-propyl carbamate]",,0.9 nM,188 nM,,9090 nM,,3970 nM,
